pKi: −log10 of the molar value.
biological target: Glutamate receptor ionotropic, NMDA 1 (Rattus norvegicus, UniProt P35439); experiment: Compound was evaluated for its ability to displace [3H]TCP from PCP N-methyl-D-aspartate glutamate receptor in rat brain; type: tissue-based

SMILES | pKi
c1ccc([C@@]2(N3CCCCC3)C[C@H]3C[C@H]3C2)cc1 | 6.15
c1ccc(C2(N3CCCCC3)CCCCC2)cc1 [PHENCYCLIDINE] | 7.19
c1ccc([C@@]2(N3CCCCC3)CC[C@H]3C[C@H]32)cc1 | 5.09
c1ccc([C@]2(N3CCCCC3)CC[C@H]3C[C@H]32)cc1 (racemic) | 6.24
c1ccc([C@]2(N3CCCCC3)C[C@H]3C[C@H]3C2)cc1 | 6.19
c1ccc([C@]2(N3CCCCC3)CC[C@@H]3C[C@@H]32)cc1 | 4.54

From ChEMBL document CHEMBL1126186 (J Med Chem, 1992)
